According to PubChem BioAssay AID212 (DTP/NCI, 2004):
Several values for one entry are separate records, joined by “and”; a condition that tells them apart may be missing. Equal entries are not always repeated. Results filed as inconclusive are left out. Where a SMILES comes first, the peptide text is derived from it. Bridges are numbered along the chain shown (N, C = ends).

Tested on: BDF1 mice, colon carcinoma 38 sc, T/C %
Assay: NCI In Vivo Anticancer Drug Screen. Data for tumor model Colon Carcinoma 38 (subcutaneous) in B6D2F1 (BDF1) mice
Conditions: endpoint: median tumor weight (est.), higher = larger tumour
In short: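 Ratio of survival or tumor size, compound-treated animals relative to vehicle controls, in tumor-bearing mice.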

[1] = dose: 12.5 mg/kg/injection, schedule: Q07DX002 (ip), vehicle: saline with Tween-80
[2] = dose: 50.0 mg/kg/injection, schedule: Q07DX002 (ip), vehicle: saline with Tween-80
[3] = dose: 100.0 mg/kg/injection, schedule: Q07DX002 (ip), vehicle: saline with Tween-80
[4] = dose: 50.0 mg/kg/injection, schedule: Q07DX002 (ip), vehicle: saline
[5] = dose: 25.0 mg/kg/injection, schedule: Q07DX002 (ip), vehicle: saline with Tween-80
[6] = dose: 25.0 mg/kg/injection, schedule: Q07DX002 (ip), vehicle: saline
[7] = dose: 100.0 mg/kg/injection, schedule: Q07DX002 (ip), vehicle: saline
[8] = dose: 200.0 mg/kg/injection, schedule: Q07DX002 (ip), vehicle: saline
[9] = dose: 25.0 mg/kg/injection, schedule: Q07DX002 (ip), vehicle: Klucel (hydroxypropylcellulose) (HPC)
[10] = dose: 100.0 mg/kg/injection, schedule: Q07DX002 (ip), vehicle: Klucel (hydroxypropylcellulose) (HPC)
[11] = dose: 200.0 mg/kg/injection, schedule: Q07DX002 (ip), vehicle: Klucel (hydroxypropylcellulose) (HPC)

## CCC1=C[C@H]2CN(CCc3c([nH]c4ccccc34)[C@@](C(=O)OC)(c3cc4c(cc3OC)N(C)[C@H]3[C@@](O)(C(=O)NC)[C@H](OC(C)=O)[C@]5(CC)C=CCN6CC[C@]43[C@@H]65)C2)C1
dose: 0.03 mg/kg/injection, schedule: Q07DX002 (ip), vehicle: saline
  T/C: 116 % of control
dose: 0.06 mg/kg/injection, schedule: Q07DX002 (ip), vehicle: saline
  T/C: 84 % of control
dose: 0.12 mg/kg/injection, schedule: Q07DX002 (ip), vehicle: saline
  T/C: 90 % of control
dose: 0.5 mg/kg/injection, schedule: Q07DX002 (ip), vehicle: saline
  T/C: 108 % of control
dose: 1.0 mg/kg/injection, schedule: Q07DX002 (ip), vehicle: saline
  T/C: 90 % of control

## Cc1cc2cc3cc(C)c(N)cc3nc2cc1N
dose: 6.25 mg/kg/injection, schedule: Q07DX002 (ip), vehicle: saline with Tween-80
  T/C: 95 % of control
[1]
  T/C: 109 % of control
[2]
  T/C: 54 % of control
[3]
  T/C: 89 % of control

## CCC(C)C1NC(=O)C(CC(C)C)NC(=O)C(C(C)C)NC(=O)C2CSSCC(NC1=O)C(=O)N2 (centres undefined) (cyclo(CCVLI); disulfide 1-2; configuration not given here)
dose: 128.12 micrograms/kg/injection, schedule: Q07DX002 (ip), vehicle: Klucel (hydroxypropylcellulose) (HPC)
  T/C: 160 % of control
dose: 256.25 micrograms/kg/injection, schedule: Q07DX002 (ip), vehicle: Klucel (hydroxypropylcellulose) (HPC)
  T/C: 118 % of control

## CS(=O)(=O)[O-].CS(=O)(=O)[O-].NC1CCCCC1N.[Pt+4] (centres undefined)
dose: 0.31 mg/kg/injection, schedule: Q07DX002 (ip), vehicle: dextrose
  T/C: 71 % of control
dose: 0.62 mg/kg/injection, schedule: Q07DX002 (ip), vehicle: dextrose
  T/C: 58 % of control and 82 % of control
dose: 1.25 mg/kg/injection, schedule: Q07DX002 (ip), vehicle: dextrose
  T/C: 54 % of control and 56 % of control
dose: 2.5 mg/kg/injection, schedule: Q07DX002 (ip), vehicle: dextrose
  T/C: 35 % of control and 45 % of control
dose: 5.0 mg/kg/injection, schedule: Q07DX002 (ip), vehicle: dextrose
  T/C: 39 % of control
dose: 10.0 mg/kg/injection, schedule: Q07DX002 (ip), vehicle: dextrose
  T/C: 19 % of control

## N=C(N)SCc1c2ccccc2c(CSC(=N)N)c2ccccc12
dose: 6.25 mg/kg/injection, schedule: Q07DX002 (ip), vehicle: suspension in saline
  T/C: 63 % of control
dose: 12.5 mg/kg/injection, schedule: Q07DX002 (ip), vehicle: saline
  T/C: 93 % of control and 100 % of control
dose: 12.5 mg/kg/injection, schedule: Q07DX002 (ip), vehicle: suspension in saline
  T/C: 92 % of control
dose: 25.0 mg/kg/injection, schedule: Q07DX002 (ip), vehicle: suspension in saline
  T/C: 83 % of control
[4]
  T/C: 71 % of control and 89 % of control
dose: 50.0 mg/kg/injection, schedule: Q07DX002 (ip), vehicle: suspension in saline
  T/C: 64 % of control
dose: 100.0 mg/kg/injection, schedule: Q07DX002 (ip), vehicle: suspension in saline
  T/C: 115 % of control
dose: 200.0 mg/kg/injection, schedule: Q07DX002 (ip), vehicle: suspension in saline
  T/C: 97 % of control

## Nc1cc2c3c(cccc3c1)C(=O)N(CCN1CCCC1)C2=O
dose: 15.0 mg/kg/injection, schedule: Q07DX002 (ip), vehicle: saline with Tween-80
  T/C: 75 % of control
[5]
  T/C: 117 % of control
dose: 30.0 mg/kg/injection, schedule: Q07DX002 (ip), vehicle: saline with Tween-80
  T/C: 83 % of control
[2]
  T/C: 152 % of control
dose: 60.0 mg/kg/injection, schedule: Q07DX002 (ip), vehicle: saline with Tween-80
  T/C: 73 % of control
[3]
  T/C: 90 % of control
dose: 120.0 mg/kg/injection, schedule: Q07DX002 (ip), vehicle: saline with Tween-80
  T/C: 62 % of control
dose: 200.0 mg/kg/injection, schedule: Q07DX002 (ip), vehicle: saline with Tween-80
  T/C: 28 % of control

## CCC(C(=O)O)C(=O)O.[NH-]CC1CCCC[N-]1.[Pt+2]
[6]
  T/C: 305 % of control
[4]
  T/C: 404 % of control
[7]
  T/C: 209 % of control
[8]
  T/C: 239 % of control

## C=C[Si]12OCCN(CCO1)CCO2
[9]
  T/C: 73 % of control and 90 % of control
[10]
  T/C: 29 % of control
[11]
  T/C: 93 % of control and 97 % of control

## CCCCCC(O)C1C(=O)OC(C)C(O)/C=C/C=C/C=C/C=C\C=C(\C)C(O)CC(O)CC(O)CC(O)CC(O)CC(O)CC1O (centres undefined)
dose: 2.5 mg/kg/injection, schedule: Q07DX002 (ip), vehicle: saline
  T/C: 105 % of control
dose: 5.0 mg/kg/injection, schedule: Q07DX002 (ip), vehicle: saline
  T/C: 64 % of control
dose: 20.0 mg/kg/injection, schedule: Q07DX002 (ip), vehicle: saline
  T/C: 71 % of control

## O=S(=O)(O)O
[9]
  T/C: 110 % of control
dose: 50.0 mg/kg/injection, schedule: Q07DX002 (ip), vehicle: Klucel (hydroxypropylcellulose) (HPC)
  T/C: 103 % of control
[10]
  T/C: 78 % of control
[11]
  T/C: 112 % of control

## C[N+](C)(C)c1ncnc2nc[nH]c12
[6]
  T/C: 83 % of control
[4]
  T/C: 77 % of control and 98 % of control
[7]
  T/C: 96 % of control and 100 % of control
[8]
  T/C: 75 % of control and 85 % of control

## Nc1nccc2c1ncn2C1OC(CO)C(O)C1O (centres undefined)
dose: 4.6 mg/kg/injection, schedule: Q03HX024 (ip), vehicle: saline with Tween-80
  T/C: 103 % of control
dose: 9.3 mg/kg/injection, schedule: Q03HX024 (ip), vehicle: saline with Tween-80
  T/C: 114 % of control
dose: 18.7 mg/kg/injection, schedule: Q03HX024 (ip), vehicle: saline with Tween-80
  T/C: 82 % of control and 92 % of control
dose: 75.0 mg/kg/injection, schedule: Q03HX024 (ip), vehicle: saline with Tween-80
  T/C: 93 % of control

## N/C=N/O
[6]
  T/C: 124 % of control
[4]
  T/C: 70 % of control
[7]
  T/C: 97 % of control
[8]
  T/C: 92 % of control
dose: 400.0 mg/kg/injection, schedule: Q07DX002 (ip), vehicle: saline
  T/C: 56 % of control

## CNC(=O)n1c(N)nc(-c2ccccc2)c1-c1ccccc1
[1]
  T/C: 80 % of control
[5]
  T/C: 99 % of control
[2]
  T/C: 119 % of control
[3]
  T/C: 98 % of control

## CC[C@H]1CN2CCc3cc(OC)c(OC)cc3[C@@H]2C[C@@H]1C[C@H]1NCCc2cc(OC)c(OC)cc21
dose: 1.75 mg/kg/injection, schedule: Q07DX002 (ip), vehicle: saline
  T/C: 57 % of control
dose: 3.5 mg/kg/injection, schedule: Q07DX002 (ip), vehicle: saline
  T/C: 74 % of control
dose: 7.0 mg/kg/injection, schedule: Q07DX002 (ip), vehicle: saline
  T/C: 84 % of control
dose: 14.0 mg/kg/injection, schedule: Q07DX002 (ip), vehicle: saline
  T/C: 89 % of control
dose: 28.0 mg/kg/injection, schedule: Q07DX002 (ip), vehicle: saline
  T/C: 74 % of control
